Measurements as given in patent publication EP4775209A1 (Ascentawits Pharmaceuticals, Ltd., priority 2023, dated 2025).

Columns and labels:
[1] = tested on: human lung cancer (H460-GFP) subcutaneous CDX model; experiment: Human lung cancer CDX efficacy model (QW×2 regimen); type: in vivo, nude mice; conditions: 15 mg/kg, BIW×4, I.V.; P<0.01
Description: Images of tumor burden in mice were non-invasively collected twice a week by a Fluor Vivo Model 100 imaging system, and the mean value of tumor area in each group was calculated based on imaging analysis results. […] The data from this experiment are the data for the H460 model in Example 3-1 of the aforementioned Patent Application 2 (see Table 5 and Figure 5 of this application).

[2] = tested on: HuPrime® pancreatic cancer PA2637 subcutaneous xenograft model; conditions: Day 36 after first administration, AST-3424 1 mg/kg QD×5, 16 days off
Excerpt: (§1) For the experimental procedures and relevant evaluation indicators of the aforementioned solid tumor animal efficacy models, please refer to Examples 7, 8, and 9 in Patent Application 1, namely PCT/US2016/062114, with Publication No. WO2017/087428 (corresponding to Chinese Application CN201680044608.1, with Publication No. CN108290911B), Examples 3 and 4 in Patent Application 2, namely PCT/CN2021/078115, with Publication No. WO2022178821, and Research Literature 1. The aforementioned non-clinical animal efficacy models (PDX) mentioned in the present application are all similar to those in the aforementioned literatures, and the specific operation procedures thereof are not described herein again.
PA2637 is a HuPrime® xenograft model established from a pancreatic cancer tumor of a patient.
(§2) Efficacy was evaluated based on the relative tumor growth inhibition rate (TGI, %), and safety was evaluated based on animal body weight changes and mortality.

[3] = tested on: HuPrime® lung cancer LU5161 subcutaneous xenograft model; conditions: day 29 after first administration, AST-3424 1 mg/kg QD×5, 16 days off
Excerpt: as §1
LU5161 is a HuPrime® xenograft model established from a lung tumor (small cell lung cancer) of a patient.
as §2

[4] = tested on: HuPrime® lung cancer LU5173 subcutaneous xenograft model; conditions: day 32 after first administration, AST-3424 1 mg/kg QD×5, 16 days off
Excerpt: as §1
The LU5173 is a HuPrime® xenograft model established from a lung cancer (small cell lung carcinoma) tumor of a patient.
Efficacy was evaluated based on the relative tumor growth inhibition (TGI, %), and safety was evaluated based on animal body weight changes and mortality.

[5] = tested on: HuPrime® pancreatic cancer PA1170 subcutaneous xenograft model; experiment: Pancreatic cancer PA1170 subcutaneous xenograft efficacy model; type: in vivo, BALB/c nude mice; conditions: 50 mg/kg, QD×30
[6] = tested on: HuPrime® pancreatic cancer PA9451 subcutaneous xenograft model; experiment: Pancreatic cancer PA9451 subcutaneous xenograft efficacy model; type: in vivo, BALB/c nude mice; conditions: 50 mg/kg, QD×30
[7] = Toxicokinetics (D1+D8/21 Days) in rats; type: in vivo, Sprague-Dawley (SD) rats; conditions: AST-3424 3, 10, 30 mg/kg on D1, D8, D22, D29
[8] = Phase I clinical trial of AST-3424 in China: blood pharmacokinetics compared with US data; type: in vivo, human; conditions: Chinese and American patients, printed as 'almost lower than'
[9] = Toxicokinetics (D1+D8/21 Days) in monkeys; type: in vivo, cynomolgus monkeys

**Q.** Which TGI [1] does the source give for `CC(=O)O[C@H]1C(=O)[C@@]2(C)[C@H]([C@H](OC(=O)c3ccccc3)[C@]3(O)C[C@H](OC(=O)[C@H](O)[C@@H](NC(=O)c4ccccc4)c4ccccc4)C(C)=C1C3(C)C)[C@]1(OC(C)=O)CO[C@@H]1C[C@@H]2O` [Taxol, reference compound] here?
**A.** 64%

**Q.** For `O=P1(NCCCl)OCCCN1CCCl` (stereo not drawn) [ifosfamide, reference compound], which “TGI (%)” value ([2]; QD×5 (P < 0.001), ifosfamide 60 mg/kg QD×5/week for 2 weeks (no statistical difference)) is on record?
**A.** 2.74%

**Q.** What about the mean tumor volume ([2]; QD×5, ifosfamide 60 mg/kg QD×5/week for 2 weeks, vehicle 977.46) of the same compound?
**A.** 938.33 mm^3

**Q.** And the “TGI (%)” value ([3]; QD×5 (P < 0.001), ifosfamide 60 mg/kg QD×5/week for 2 weeks (p > 0.05))?
**A.** 27.39%

**Q.** And the mean tumor volume ([3]; QD×5, ifosfamide 60 mg/kg QD×5/week for 2 weeks, negative control 2238.97)?
**A.** 1636.39 mm^3

**Q.** What about the “TGI (%)” value ([4]; QD×5 (P < 0.001), ifosfamide 6.0 mg/kg QD×5/week for 2 weeks (p > 0.05)) of the same compound?
**A.** 44.45%

**Q.** What about the mean tumor volume ([4]; QD×5, ifosfamide 6.0 mg/kg QD×5/week for 2 weeks, vehicle 2276.68) of the same compound?
**A.** 1229.15 mm^3

**Q.** Which “TGI (%)” value ([5]; Day 30, P > 0.05) does the source give for `O=C(c1cc(Cc2n[nH]c(=O)c3ccccc23)ccc1F)N1CCN(C(=O)C2CC2)CC1` [olaparib, reference compound] here?
**A.** 57.66%

**Q.** What about the mean tumor volume ([5]; Day 30 after first administration) of the same compound?
**A.** 517.75 mm^3

**Q.** What about the “TGI (%)” value ([6]; Day 36, P < 0.001) of the same compound?
**A.** 47.88%

**Q.** What about the mean tumor volume ([6]; Day 36 after first administration) of the same compound?
**A.** 344.84 mm^3

**Q.** Which results are given for `O=P(O)(N1CC1)N1CC1` [AST-2660]?
**A.** exposure on Day 29 compared to Day 1 [7]: decreased; concentrations after 8 hours [8]: lower than 1 ng/ml; exposure to AST-2660 as % of the AST-3424 exposure ([9]; Day 1): 27.2%; exposure to AST-2660 as % of the AST-3424 exposure ([9]; Day 29): 11.0%
